In patent US20100152152A1, “Therapeutic Use of Nefopam” (priority 2005, published 2010):
Counter-ions that a name gives are not always drawn. Marks after values point to notes of the source that are not given here.

Legend:
[1] = conventional release preparations; cited from earlier work
[2] = system: Mice; assay: Marble Burying Test (anxiolytic/tranquillizing activity); assay type: in vivo; settings: 30 minutes before the test, 30 minute test
Protocol: Nefopam and (+)-nefopam were evaluated in the Marble Burying Test, a model which detects anxiolytic/tranquillizing activity. This is a general model for affective disorders.
The method follows that described by Broekkamp et al. (1986 Eur. J. Pharmacol., 126, 223-229. Mice exposed to novel objects (marbles) will bury them in the sawdust floor covering. Anxiolytics decrease the number of marbles buried at non-sedative doses.
Mice are individually placed in transparent plastic cages (33×21×18 cm) with 5 cm of sawdust on the floor and 25 marbles grouped in the centre of each cage. Each test cage is covered with an inverted plastic covering. Each test cage, together with the marbles, is impregnated with mouse odor beforehand, by leaving 10 mice in the cage for 15 minutes. These mice then play no further role in the experiment. The number of marbles covered by sawdust (⅔ or more) is counted at the end of a 30 minute test.
All compounds were administered i.p. 30 minutes before the test, and compared with a vehicle control group. Clobazam (8 mg/kg i.p.), administered under the same experimental conditions, was used as reference substance.

[3] = system: dopamine, norepinephrine and serotonin uptake; settings: in vitro and in vivo; Fasmer et al., 1987; Rosland and Hole, 1990; Mather at al., 2001; cited from earlier work

**Q.** With `CN1CCOC(c2ccccc2)c2ccccc2C1` (racemic) [Nefopam, 5-methyl-1-phenyl-3,4,5,6-tetrahydro-1H-2,5-benzoxazocine hydrochloride] as the molecule, how does the elimination half-life [1] read?
**A.** four

**Q.** And the “Number of marbles buried (% change from ctrl)” value (from here on “Number … (% change from ctrl)”) ([2]; 10 mg/kg ip)?
**A.** −66* % change from ctrl

**Q.** What about the “Number … (% change from ctrl)” value ([2]; 20 mg/kg ip) of the same molecule?
**A.** −98* % change from ctrl

**Q.** And the “Number … (% change from ctrl)” value ([2]; 40 mg/kg ip)?
**A.** −100* % change from ctrl

**Q.** Which “order of potency (analgesic and dopamine, norepinephrine and serotonin uptake inhibitory properties)” value [3] does the source give for `CN1CCO[C@@H](c2ccccc2)c2ccccc2C1` [(+)-nefopam] here?
**A.** (+)-nefopam>(±)-nefopam>(−)-nefopam

**Q.** What about the “Number … (% change from ctrl)” value ([2]; 10 mg/kg ip) of the same molecule?
**A.** −56* % change from ctrl

**Q.** And the “Number … (% change from ctrl)” value ([2]; 20 mg/kg ip)?
**A.** −99* % change from ctrl

**Q.** What about the “Number … (% change from ctrl)” value ([2]; 40 mg/kg ip) of the same molecule?
**A.** −100* % change from ctrl

**Q.** For `CN1C(=O)CC(=O)N(c2ccccc2)c2cc(Cl)ccc21` [Clobazam], which “Number … (% change from ctrl)” value ([2]; 32 mg/kg ip) is on record?
**A.** −75* % change from ctrl
